Experimental data published in article PMC8868332, “Creating Robust Antimicrobial Materials with Sticky Tyrocidines” (Antibiotics, 2022).
Where no end group is shown, it is not given here.

Columns and labels:
E. coli = settings: cited from earlier work
Source text: Table 2 Summary of the compounds used to compare with the Trc in creating robust non-covalent antimicrobial materials. | column: Minimum Inhibitory Concentration (μg/mL) / E. coli

[1] = general character summarised in Table 2; no reference given; cited from earlier work
Source text: Table 2 Summary of the compounds used to compare with the Trc in creating robust non-covalent antimicrobial materials. | column: Character

Escherichia coli K12 = test: Resazurin assay of surface activity of peptide-treated cellulose; format: cell-based; settings: cellulose filters, 5.0 µg compound offered per 0.28 cm^2; normalised to untreated cellulose; Figure 6B, three biological and four technical repeats
Description: (§1) An aqueous solution of antimicrobial compound (100 µL of 50.0 µg/mL; 5% v/v acetonitrile) was incubated for two hours with the base material punch (0.28 cm^2), ensuring that 5.0 µg of compound was available for binding. Following the incubation, the antimicrobial compound solution was removed, and the samples washed twice with 100 µL sterile analytical quality water and dried in a 40 °C oven for 2 h. Treatment conditions were chosen to imitate large scale treatment/creation of packaging materials, such as aqueous solutions, followed by a drying step.
The antimicrobial activity of the Trc-containing materials and films were determined by a developed resazurin assay. Listeria monocytogenes B73 was streaked out from freezer stocks onto BHI agar plates (Brain Heart Infusion; 1.5% m/v agar) and incubated for 48 h at 37 °C until colonies were viable. Escherichia coli K12 was streaked out from freezer stocks onto LB plates (1% m/v NaCl, 1% m/v tryptone, 0.5% m/v yeast extract, 1.5% m/v agar in water) and incubated at 37 °C for 24 h. Starter cultures were prepared, by inoculating 1 mL medium with 3–5 colonies and growing the cells overnight at 37 °C at an angle, shaking at 150 RPM. […] This culture was then pipetted (10 µL) onto the treated and untreated materials in a 96-well assay plate and incubated for one hour at 37 °C. Following the incubation, 90 µL PBS (phosphate buffered saline; 0.8% m/v NaCl, 0.04% m/v KCl, 0.144% m/v Na2HPO4, 0.02% m/v KH2PO4; pH 7.4), and 10 µL resazurin dye (0.3 mg/mL in PBS) was added, followed by a further incubation at 37 °C. The conversion of the resazurin was measured at Ex530 and Em590 after 30 min for L. monocytogenes and 90 min for E. coli using the Tecan Spark 10 M Multimode Microplate Reader and controlled by the Spark Control^TM software, both provided by Tecan Group Ltd. (Mennedorf, Switzerland). […] The activity of the material was determined in terms of percentage inhibition by using the acquired fluorescence readings (F), with the following Equation: (1) %Inhibition of Target organism=100−(F of well−F of average blank)×100/(F of growth control−F of average blank).

L. monocytogenes = settings: cited from earlier work
Source text: Table 2 Summary of the compounds used to compare with the Trc in creating robust non-covalent antimicrobial materials. | column: Minimum Inhibitory Concentration (μg/mL) / L. monocytogenes

[2] = test system: Listeria monocytogenes B73; test: Resazurin assay of surface activity of peptide-treated materials; format: cell-based; settings: cellulose filters, 5.0 µg compound offered per 0.28 cm^2; normalised to untreated cellulose; Figure 6A, three biological and four technical repeats
Description: as §1
The antimicrobial activity of the Trc-containing materials and films were determined by a developed resazurin assay. […] The conversion of the resazurin was measured at Ex530 and Em590 after 30 min for L. monocytogenes and 90 min for E. coli using the Tecan Spark 10 M Multimode Microplate Reader and controlled by the Spark Control^TM software, both provided by Tecan Group Ltd. (Mennedorf, Switzerland). […] The activity of the material was determined in terms of percentage inhibition by using the acquired fluorescence readings (F), with the following Equation: (1) %Inhibition of Target organism=100−(F of well−F of average blank)×100/(F of growth control−F of average blank).

Compound: Melittin
- Minimum Inhibitory Concentration E. coli (E. coli): 15–42.5 [89, 90] μg/mL
- Haemolytic character (Character) [1]: haemolytic
- Solubility (Character) [1]: water-soluble
- % Inhibition of E. coli by peptide-treated cellulose (Escherichia coli K12): low levels of inhibition
- Minimum Inhibitory Concentration L. monocytogenes (L. monocytogenes): 0.315 ± 0.008 [88] μg/mL

Compound: PGLa
- Minimum Inhibitory Concentration E. coli (E. coli): 10–50 [86] μg/mL
- % Inhibition of E. coli by peptide-treated cellulose (Escherichia coli K12): “negative” inhibition

Compound: CNC(C)C1CCC(N)C(OC2C(N)CC(N)C(OC3OCC(C)(O)C(NC)C3O)C2O)O1 (stereo not drawn) [Gentamicin]
- Minimum Inhibitory Concentration L. monocytogenes (L. monocytogenes): 0.5–4.0 [91, 92] μg/mL

Compound: gramicidin S [GS]
- % Inhibition of L. monocytogenes by peptide-treated cellulose [2]: 100%
- Minimum Inhibitory Concentration E. coli (E. coli): 3–12.5 [84] μg/mL
- % Inhibition of E. coli by peptide-treated cellulose (Escherichia coli K12): full inhibition
- Minimum Inhibitory Concentration L. monocytogenes (L. monocytogenes): 11 ± 0.20 [34] μg/mL

Compound: Leucocin A (KYYGNGVHCTKSGCSVNWGEAFSAGVHRLANGGNGFW; ends and bridges not checked; cysteine pairing not given here; UniProt P34034 25-61, looked up) [37-mer cationic, amphipathic disulphide-bonded bacteriocin from Leuconostoc gelidum UAL187]
- Haemolytic character (Character) [1]: non-haemolytic
- Solubility (Character) [1]: water-soluble
- % Inhibition of E. coli by peptide-treated cellulose (Escherichia coli K12): low levels of inhibition
- Minimum Inhibitory Concentration L. monocytogenes (L. monocytogenes): 0.98–1.98 [87] μg/mL

Compound: Magainin 2
- Minimum Inhibitory Concentration E. coli (E. coli): 10–50 [85] μg/mL
- % Inhibition of E. coli by peptide-treated cellulose (Escherichia coli K12): “negative” inhibition
